These compounds were tested against T1, human glucocorticoid receptor (hGR) (Homo sapiens, UniProt P04150) (assay: human glucocorticoid receptor binding assay (displacement of 3H triamcinolone acetonide)). Conditions: 1 μM.
T1 construct: made in house; host or cells: Sf21 insect cells infected with baculovirus hGR, OR IM9 lymphoblast cell line (endogenous hGR)
T1 sequence (P04150 1-777): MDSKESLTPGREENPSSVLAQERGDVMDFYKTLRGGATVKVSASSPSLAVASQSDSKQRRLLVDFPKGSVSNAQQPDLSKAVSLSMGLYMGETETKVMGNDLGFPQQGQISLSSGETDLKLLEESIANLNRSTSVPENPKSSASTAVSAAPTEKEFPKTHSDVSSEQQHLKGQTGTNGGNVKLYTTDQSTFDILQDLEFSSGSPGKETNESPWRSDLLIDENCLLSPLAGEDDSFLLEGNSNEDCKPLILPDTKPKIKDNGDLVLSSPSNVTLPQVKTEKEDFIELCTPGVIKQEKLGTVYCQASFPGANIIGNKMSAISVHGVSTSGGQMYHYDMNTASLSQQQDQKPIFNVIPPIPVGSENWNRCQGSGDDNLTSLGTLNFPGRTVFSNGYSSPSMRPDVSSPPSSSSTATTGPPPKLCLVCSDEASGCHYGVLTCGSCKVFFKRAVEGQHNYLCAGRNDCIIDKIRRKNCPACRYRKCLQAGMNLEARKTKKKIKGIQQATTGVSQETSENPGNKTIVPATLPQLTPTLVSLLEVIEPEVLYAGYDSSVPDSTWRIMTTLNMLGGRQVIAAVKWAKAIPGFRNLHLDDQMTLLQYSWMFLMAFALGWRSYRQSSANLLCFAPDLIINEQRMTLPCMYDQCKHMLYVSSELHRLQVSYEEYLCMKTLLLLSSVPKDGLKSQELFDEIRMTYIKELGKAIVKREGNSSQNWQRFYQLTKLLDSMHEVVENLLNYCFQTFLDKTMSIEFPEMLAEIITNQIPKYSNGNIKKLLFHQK
Procedure: A human glucocorticoid receptor binding assay was carried out to determine the extent to which the compounds of this invention have the ability to bind to human glucocorticoid receptors. This binding ability may be indicative of the antiinflammatory activity of the compound. The test was carried out as follows.
Human glucocorticoid receptors were prepared from either insect cells (Sf21) infected with baculovirus hGR or from a lymphoblast cell line which expresses high levels of endogenous hGR (IM9). The receptor binding reactions, with or without test compounds, were set up in 96-well microtiter plates which were previously siliconized with SIGMACOTE™, a chlorinated organopolysiloxane in heptane. The binding components, 3(H) Triamcinolone acetonide (TAA), glycerol/molybdate-containing buffer and unlabeled compounds were added to the wells using a combination of BIOMEK laboratory automation system and repeat pipettes. After four hours of incubation, the samples were precipitated with polyethylene glycol and filtered through Whatman GFIF paper using a TOMTEK cell harvester. The filter mate with 96 samples were bound to a solid-phase scintillant and directly counted in a BETAPLATE counter. […] The activity of test compounds to displace 3(H) TAA binding to hGR is also expressed as percent inhibition at 1 μM.

Row | hGR, value given as % (% inhibition) [%] | SMILES
1 | 15 | O=C(Cc1ccccc1C(F)(F)F)NCC(c1ccccc1)C1c2ccccc2-c2ccccc21 (stereo not shown) [Compound 69]
2 | 68 | CC(C)CC(=O)NCC1(c2ccccc2)CC1(c1ccccc1)c1ccccc1 (stereo not shown) [Compound 85]
3 | 53 | COc1ccccc1CCC(=O)NCC(c1ccccc1)C1c2ccccc2-c2ccccc21 (stereo not shown) [Compound 70]
4 | 11 | O=C(NCC1(c2ccccc2)CC1(c1ccccc1)c1ccccc1)Nc1ccccc1F (stereo not shown) [Compound 93]
5 | 46 | O=C(Cc1ccccc1Cl)NCC(c1ccccc1)C1c2ccccc2-c2ccccc21 (stereo not shown) [Compound 68]
6 | 32 | COc1ccccc1NC(=O)NCC(c1ccccc1)C(c1ccccc1)c1ccccc1 (stereo not shown) [Compound 51]
7 | 23 | COc1ccccc1CC(=O)NCC(c1ccccc1)C1c2ccccc2-c2ccccc21 (stereo not shown) [Compound 67]
8 | 62 | COc1ccccc1CC(=O)NCC(c1ccccc1)C(c1ccccc1)c1ccccc1 (stereo not shown) [Compound 5]
9 | 4 | O=C(NCc1ccccc1)NCC1(c2ccccc2)CC1(c1ccccc1)c1ccccc1 (stereo not shown) [Compound 95]
10 | 13 | COc1ccccc1NC(=O)NCC1(c2ccccc2)CC1(c1ccccc1)c1ccccc1 (stereo not shown) [Compound 94]

Row | SMILES | hGR, value given as % (% inhibition) [%]
11 | Cc1ccc(C(=O)NCC(c2ccccc2)C2c3ccccc3-c3ccccc32)s1 (stereo not shown) [Compound 72, N-(2-carbonyl-5-methylthiophene)-2-(9H-fluoreny-9-yl)-2-phenylethylamine] | 33

The compounds below were run on human progesterone receptor (hPR) (assay: human progesterone receptor binding assay (displacement of 3H R5020 promegestone)). Conditions: not given.
Procedure: A human progesterone receptor binding assay was performed in order to determine selectivity of the compounds, as follows. Human progesterone receptors were prepared from either insect cells (SF21) infected with baculovirus hPR A, or from a breast cancer cell line, T47D, which expresses high levels of endogenous hPR. The receptor binding reactions, with or without test compounds, were set up in 96-well microtiter plates which were previously siliconized with SIGMACOTE. The binding components, 3(H) R5020 Promegestone, a high affinity ligand for the progesterone receptors, glycerollmolybdate-containing buffer and unlabeled compounds were added to the wells using a combination of BIOMEK laboratory automation system and repeat pipettes. After overnight incubation, the samples were precipitated with polyethylene glycol and filtered through Whatman GF/F paper using a TOMTEK cell harvester. The filter mate with 96 samples were bound to a solid-phase scintillant and directly counted in the BETAPLATE counter. Only those compounds that were active in the human glucocorticoid receptor assay set forth in Example 30 were used for progesterone receptor binding to determine cross-reactivity profiles, if any. The activity of test compounds to displace 3(H) R5020 binding to hPR is expressed as percent inhibition at the two concentrations, 10^−6 and 10^−5 Molar.

Row | hPR % inh 10 μM [%] | SMILES
12 | 50 | O=C(NCC(c1ccc(I)cc1)C(c1ccccc1)c1ccccc1)c1ccc(Cl)c(Cl)c1 (stereo not shown) [Compound 174]
13 | 25 | COc1cc(CC(=O)NCC(c2ccc(I)cc2)C(c2ccccc2)c2ccccc2)cc(OC)c1 (stereo not shown) [Compound 171]
14 | 15 | COc1cccc(C(=O)NCC(c2ccc(I)cc2)C(c2ccccc2)c2ccccc2)c1 (stereo not shown) [Compound 182]
15 | 53 | O=C(NCC(c1ccc(I)cc1)C(c1ccccc1)c1ccccc1)c1cccs1 (stereo not shown) [Compound 179]
16 | 32 | O=C(NCC(c1ccc(I)cc1)C(c1ccccc1)c1ccccc1)c1ccccc1Cl (stereo not shown) [Compound 172]
17 | 32 | COc1ccccc1CC(=O)NCC(c1ccc(I)cc1)C(c1ccccc1)c1ccccc1 (stereo not shown) [Compound 168]
18 | 68 | O=C(NCC(c1ccc(I)cc1)C(c1ccccc1)c1ccccc1)c1ccc(F)cc1 (stereo not shown) [Compound 176]
19 | 44 | O=C(Cc1ccc(Cl)c(Cl)c1)NCC(c1ccc(I)cc1)C(c1ccccc1)c1ccccc1 (stereo not shown) [Compound 163]
20 | 30 | O=C(Cc1ccc(Cl)cc1)NCC(c1ccc(I)cc1)C(c1ccccc1)c1ccccc1 (stereo not shown) [Compound 162]
21 | 46 | O=C(Cc1ccc(C(F)(F)F)cc1)NCC(c1ccc(I)cc1)C(c1ccccc1)c1ccccc1 (stereo not shown) [Compound 166]
22 | 41 | COc1ccccc1C(=O)NCC(c1ccc(I)cc1)C(c1ccccc1)c1ccccc1 (stereo not shown) [Compound 181]
23 | 63 | O=C(Cc1cc(C(F)(F)F)cc(C(F)(F)F)c1)NCC(c1ccc(I)cc1)C(c1ccccc1)c1ccccc1 (stereo not shown) [Compound 167]
24 | 79 | O=C(Cc1ccc(F)cc1)NCC(c1ccc(I)cc1)C(c1ccccc1)c1ccccc1 (stereo not shown) [Compound 165]
25 | 65 | O=C(NCC(c1ccc(I)cc1)C(c1ccccc1)c1ccccc1)c1ccccc1F (stereo not shown) [Compound 175]

The next lines start with the compound.

Row | SMILES | hPR % inh 10 μM [%]
26 | Cc1ccc(CC(=O)NCC(c2ccc(C(F)(F)F)cc2)C(c2ccccc2)c2ccccc2)cc1 (stereo not shown) [Compound 152] | 41
27 | CN(C)c1ccc(C=CC(=O)NCC(c2ccc(C(F)(F)F)cc2)C(c2ccccc2)c2ccccc2)cc1 (stereo not shown) [Compound 159] | 12
28 | O=C(Cc1ccc([N+](=O)[O-])cc1)NCC(c1ccc(C(F)(F)F)cc1)C(c1ccccc1)c1ccccc1 (stereo not shown) [Compound 154] | 34
29 | O=C(Cc1ccccc1Cl)NCC(c1ccc(I)cc1)C(c1ccccc1)c1ccccc1 (stereo not shown) [Compound 161] | 42
30 | O=C(Cc1cc(C(F)(F)F)cc(C(F)(F)F)c1)NCC(c1ccc(C(F)(F)F)cc1)C(c1ccccc1)c1ccccc1 (stereo not shown) [Compound 151] | 41
31 | CN(C)c1ccc(CC(=O)NCC(c2ccc(C(F)(F)F)cc2)C(c2ccccc2)c2ccccc2)cc1 (stereo not shown) [Compound 155] | 29

From US6372779B1, “Anti-inflammatory compounds” (Ortho Pharmaceutical Corporation, priority 1997, dated 2002)
